Patent US8076329B2, “Histamine H3-receptor ligands and their therapeutic applications” (Bioprojet, priority 2005, dated 2011)
Several values for one entry are separate records, joined by “and”; a condition that tells them apart may be missing. Equal entries are not always repeated. Structures can show the parent of a compound that is named as a salt.

Columns and labels:
[1] = target: human histamine H3 receptors (Homo sapiens, UniProt Q9Y5N1); experiment: H3 binding ([125I]iodoproxyfan displacement on membranes); conditions: compounds of the invention; membranes expressing human H3 receptors
Procedure: Membranes expressing human histamine H3 receptors were incubated 1 hour at room temperature in binding buffer containing 50 mM Na2HPO4/KH2PO4 pH 7.5 in a final volume of 200 μl. […] The reaction was stopped by rapid filtration through GF/B filters (pre-soaked for 2 hours with 0.3% polyethyleneimine) followed by 3 ice cold binding buffer washes. The filter-bound radioactivity was measured in a liquid scintillation counter with 50 μl of scintillation fluid.

[2] = target: CYP2D6 (Homo sapiens, UniProt P10635); experiment: Cytochrome inhibition, fluorometric microtiter plate assay; type: in vitro ADME; conditions: CYP2D6 cytochrome inhibition (IC50, concentrations in μM for 50% inhibition), human recombinant CYP2D6, substrate AMMC, compounds of the invention
Procedure: (§1) The ability of drug in human to inhibit the catalytic activity of cytochrome P-450 isoforms was assayed using microtiter plate-based, fluorometric assays for the activities of the five human major CYP forms. Inhibition potential was determined in vitro after incubation of fluorescent model substrates over various incubation time with human recombinant cytochrome isoforms in the absence or in presence of increasing concentrations of test molecules (from 1 nM to 100 μM), in comparison with specific CYP isoform inhibitors.
(§2) Incubation of drug was carried out at 37° C.±0.5° C. under agitation in the presence of human recombinant cytochrome P-450 isoforms and a NADPH generating system. The incubation conditions for each cytochrome isoform were as follows: […]

[3] = target: CYP3A4 (Homo sapiens, UniProt P08684); experiment: as above; type: in vitro ADME; conditions: CYP3A4 cytochrome inhibition (IC50, concentrations in μM for 50% inhibition), human recombinant CYP3A4, substrate BFC, compounds of the invention
Procedure: as §1, §2

Chain of CYP2D6 (P10635 whole entry, canonical isoform): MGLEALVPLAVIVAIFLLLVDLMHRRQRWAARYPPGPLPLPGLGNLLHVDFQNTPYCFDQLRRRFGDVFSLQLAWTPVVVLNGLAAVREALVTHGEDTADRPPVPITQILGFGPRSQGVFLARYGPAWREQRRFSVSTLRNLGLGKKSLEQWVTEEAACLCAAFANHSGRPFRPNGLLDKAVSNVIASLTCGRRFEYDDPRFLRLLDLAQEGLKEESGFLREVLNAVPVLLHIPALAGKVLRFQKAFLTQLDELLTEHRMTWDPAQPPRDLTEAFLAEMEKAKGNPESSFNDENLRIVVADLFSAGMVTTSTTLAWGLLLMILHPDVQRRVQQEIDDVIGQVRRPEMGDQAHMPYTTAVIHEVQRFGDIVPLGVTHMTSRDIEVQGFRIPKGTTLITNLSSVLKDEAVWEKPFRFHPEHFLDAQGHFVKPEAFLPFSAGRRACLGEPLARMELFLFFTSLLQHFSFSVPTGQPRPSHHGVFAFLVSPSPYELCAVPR
Chain of human histamine H3 receptors (Q9Y5N1 whole entry): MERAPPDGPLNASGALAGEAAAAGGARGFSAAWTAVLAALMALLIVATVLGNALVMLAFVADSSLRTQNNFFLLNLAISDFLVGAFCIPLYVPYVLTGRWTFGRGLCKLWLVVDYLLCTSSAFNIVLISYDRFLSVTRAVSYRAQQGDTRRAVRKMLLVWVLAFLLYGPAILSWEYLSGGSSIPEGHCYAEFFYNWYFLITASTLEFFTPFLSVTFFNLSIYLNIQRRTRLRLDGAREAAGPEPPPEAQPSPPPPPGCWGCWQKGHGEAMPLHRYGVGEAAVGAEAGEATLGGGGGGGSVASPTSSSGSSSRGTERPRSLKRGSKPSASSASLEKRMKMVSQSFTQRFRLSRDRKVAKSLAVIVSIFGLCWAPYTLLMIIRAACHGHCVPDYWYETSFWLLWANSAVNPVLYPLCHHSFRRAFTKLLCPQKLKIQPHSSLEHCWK
Chain of CYP3A4 (P08684 whole entry): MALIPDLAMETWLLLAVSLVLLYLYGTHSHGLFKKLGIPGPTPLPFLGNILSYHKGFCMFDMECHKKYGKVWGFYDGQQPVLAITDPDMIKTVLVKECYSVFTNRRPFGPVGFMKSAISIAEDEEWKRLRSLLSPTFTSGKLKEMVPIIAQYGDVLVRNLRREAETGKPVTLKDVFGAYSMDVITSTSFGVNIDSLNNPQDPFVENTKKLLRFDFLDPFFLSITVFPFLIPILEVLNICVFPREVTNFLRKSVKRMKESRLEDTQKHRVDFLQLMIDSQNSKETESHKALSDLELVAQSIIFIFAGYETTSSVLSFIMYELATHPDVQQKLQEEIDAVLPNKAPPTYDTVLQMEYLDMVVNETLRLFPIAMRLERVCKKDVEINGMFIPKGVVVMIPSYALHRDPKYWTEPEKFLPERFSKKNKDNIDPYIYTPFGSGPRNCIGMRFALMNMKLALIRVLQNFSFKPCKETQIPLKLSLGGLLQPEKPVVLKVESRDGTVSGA

Row | Ki [1] [µM] | IC50 [2] | IC50 [3] | IC50 ([2]; human, recombinant human CYP2D6, probe AMMC) [µM] | IC50 ([3]; human, recombinant human CYP3A4, probe BFC) [µM] | SMILES
1 | 0.0029 | > 10 µM | 32 µM |  |  | C[C@H]1C[C@H](C)CN(CCCOc2ccc(C(=O)N(C)C)cc2)C1 (relative stereo) [Example 1, trans-1-{3-[4-(N,N-dimethylcarbamoyl)phenoxy]propyl}-3,5-dimethylpiperidine]
2 | 0.00043 |  |  |  |  | C[C@@H]1C[C@@H](C)CN(CCCOc2ccc(C3=NCCC3)cc2)C1 (relative stereo) [Example 17, trans-1-{3-[4-(4,5-dihydro-3H-pyrrol-2-yl)phenoxy]propyl}-3,5-dimethylpiperidine]
3 | 0.00013 | > 10 µM and 14 µM | > 1 µM and 13 µM |  |  | C[C@H]1CCCN(CCCOc2ccc(C3CCC(N4CCOCC4)CC3)cc2)C1 (single isomer, unassigned) [Example 41, dihydrochloride]
4 | 0.00074 | 39 µM | 4 µM |  |  | CCCC(O)(CCC)c1ccc(OCCCN2CCCCC2)cc1 [Example 7, 1-{3-[4-(1-hydroxy-1-propylbutyl)phenoxy]propyl}piperidine]
5 | 0.00082 | > 100 µM | 20 µM |  |  | OC1(c2ccc(OCCCN3CCCCC3)cc2)CCCC1 [Example 8, 1-{3-[4-(1-hydroxycyclopentyl)phenoxy]propyl}piperidine]
6 | 0.00053 |  |  | 10 | 10 | Cc1ccccc1-c1ccc(OCCCN2CCCCC2)cc1 [Example 28, 1-{3-[(2′-methylbiphenyl-4-yl)oxy]propyl}piperidine]
7 | 0.00088 | 24 µM | > 100 µM |  |  | c1cc(-c2ccc(OCCCN3CCCCC3)cc2)cs1 [Example 29, 1-{3-[4-(3-thienyl)phenoxy]propyl}piperidine]
8 |  | > 10 µM | > 10 µM |  |  | C[C@H]1CCCN(CCCOc2ccc(-c3cc[n+](C)cc3)cc2)C1 [Example 57, 1-methyl-4-(4-{3-[(3S)-3-methylpiperidin-1-yl]propoxy}phenyl)pyridinium]
9 |  | > 10 µM | > 10 µM |  |  | OC1CCC(c2ccc(OCCCN3CCCCC3)cc2)CC1 (stereo not shown) [Example 60, 1-{3-[4-(4-hydroxycyclohexyl)phenoxy]propyl}piperidine]
10 |  | > 10 µM | > 10 µM |  |  | C[C@H]1CCCN(CCCOc2ccc([C@H]3CC[C@H](O)CC3)cc2)C1 [Example 61, (3S)-1-{3-[trans-4-(4-hydroxycyclohexyl)phenoxy]propyl}-3-methylpiperidine]
11 | 0.000554 |  |  |  |  | C[C@H]1CCCN(CCCOc2ccc([C@H]3CC[C@H](O)CC3)cc2)C1 [Example 62, (3S)-1-{3-[4-(4-hydroxycyclohexyl)phenoxy]propyl}-3-methylpiperidine]
12 |  | > 10 µM | > 10 µM |  |  | O[C@H]1CC[C@H](c2ccc(OCCCN3CCCC3)cc2)CC1 [Example 63, 1-{3-[trans-4-(4-hydroxycyclohexyl)phenoxy]propyl}pyrrolidine]
13 |  | > 10 µM | > 10 µM |  |  | C[C@H]1CCCN(CCCOc2ccc(C3CCC(C)(O)CC3)cc2)C1 (stereo partly drawn) [Example 64, (3S)-1-{3-[4-(4-hydroxy-4-methylcyclohexyl)phenoxy]propyl}-3-methylpiperidine]
14 |  | > 10 µM | > 10 µM |  |  | O[C@H]1CC[C@H](c2ccc(OCCCN3CCCCC3)cc2)CC1 [Example 65, 1-{3-[trans-4-(4-hydroxycyclohexyl)phenoxy]propyl}piperidine]
15 |  | > 10 µM | > 10 µM |  |  | CN1CCC(OCc2ccc(OCCCN3CCCCC3)cc2)CC1 [Example 67, 1-methyl-4-[4-(3-piperidinopropoxy)benzyloxy]piperidine]
16 |  | > 10 µM | > 10 µM |  |  | CN1CCC(COCc2ccc(OCCCN3CCCCC3)cc2)CC1 [Example 68, 1-methyl-4-[4-(3-piperidinopropoxy)benzyloxymethyl]piperidine]
17 | 0.00035 |  |  |  |  | CCN1CCCC(OCc2ccc(OCCCN3CCCCC3)cc2)C1 (stereo not shown) [Example 70, 1-ethyl-3-[4-(3-piperidinopropoxy)benzyloxy]piperidine]

Row | SMILES | Ki [1] [µM] | IC50 [2] | IC50 [3] | IC50 ([2]; human, recombinant human CYP2D6, probe AMMC) [µM] | IC50 ([3]; human, recombinant human CYP3A4, probe BFC) [µM]
18 | O=C(c1ccccc1)c1ccc(OCCCN2CCCCC2)cc1 [Example 3] | 0.0011 | 32 µM | 18 µM |  | 
